Legend:
Type in all cases: in vivo
foxtail = experiment: Herbicidal activity by field soil treatment (Test example 2); details: 1000 g effective component per hectare, day 21 after the treatment;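 note: index 0 to 10 in 10% steps of herbicidal effect with 10 meaning complete death and 0 below 10%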
Protocol: [table] Test for Determining Herbicidal Activity by Field Soil Treatment A 80 cm^2 wide plastic pot was filled with a field soil and seeds of each of Echinochloa crus-galli, foxtail, Indian millet, and A. retroflexus were sowed and then covered with soil. The wettable powder produced with reference to the Formulation example 1 was diluted water, and applied on the soil surface by using a small sprayer in an amount of 1000 liters per hectare so that the effective component is 1000 g per hectare. After that, the plants were cultivated in a greenhouse, and on day 21 after the treatment, evaluation was made by the criteria described in Table 72 for determining the herbicidal effects.

Monochoria vaginalis = experiment: Herbicidal activity by paddy field soil treatment (Test Example 1); set-up: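 index 0 to 10 in 10% steps of herbicidal effect with 10 meaning complete death and 0 below 10%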; details: 1000 g of effective component per hectare, evaluated on day 21 after the treatment, criteria of Table 72
Procedure, shortened: (§1)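 Pre-emergence paddy soil test: sown pots, 3 cm flood, water-surface application of diluted wettable powder 1 day after sowing, 1000 g a.i./ha; greenhouse; effect scored on graded scale at day 21.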

Scirpus juncoides Rocxb. = experiment: as above; set-up: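 index 0 to 10 in 10% steps of herbicidal effect with 10 meaning complete death and 0 below 10%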; details: applied on water surface, 1000 g of effective component per hectare, day 21 after the treatment
Procedure, shortened: as §1

Echinochloa oryzicola = experiment: as above; set-up: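 index 0 to 10 in 10% steps of herbicidal effect with 10 meaning complete death and 0 below 10%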; details: 1000 g of effective component per hectare, evaluated on day 21 after the treatment, criteria of Table 72
Procedure, shortened: as §1

A. retroflexus [1] = experiment: Herbicidal activity by field foliage treatment (Test example 3); set-up: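 index 0 to 10 in 10% steps of herbicidal effect with 10 meaning complete death and 0 below 10%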; details: 1000 g effective component per hectare, day 14 after the treatment
Procedure, shortened: (§2)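 Post-emergence foliar spray, 2-week-old greenhouse seedlings in field soil; wettable powder in water, 1000 g a.i./ha in 1000 L/ha. Greenhouse hold, visual herbicidal rating at 14 d.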

Indian millet [2] = experiment: as above; set-up: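 index 0 to 10 in 10% steps of herbicidal effect with 10 meaning complete death and 0 below 10%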; details: 1000 g effective component per hectare, day 14 after the treatment
Procedure, shortened: as §2

Setaria viridis = experiment: as above; details: 1000 g effective component per hectare, day 14 after the treatment;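 note: index 0 to 10 in 10% steps of herbicidal effect with 10 meaning complete death and 0 below 10%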
Procedure, shortened: (§3)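 Herbicidal effect was rated on day 14 following a foliar spray of 1000 g active ingredient per hectare, applied as water-diluted wettable powder at 1000 L/ha. Plants had been raised for 2 weeks in field soil under greenhouse conditions before spraying.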

Echinochloa crus-galli [3] = experiment: Herbicidal activity by field soil treatment (Test example 2); set-up: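 index 0 to 10 in 10% steps of herbicidal effect with 10 meaning complete death and 0 below 10%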; details: 1000 g effective component per hectare, day 21 after the treatment
Procedure, shortened: (§4)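 Soil-surface spray after sowing; wettable powder in water, 1000 g a.i./ha at 1000 L/ha. 80 cm^2 pots, field soil, greenhouse. Visual herbicidal score on day 21.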

A. retroflexus [4] = experiment: as above; set-up: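 index 0 to 10 in 10% steps of herbicidal effect with 10 meaning complete death and 0 below 10%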; details: 1000 g effective component per hectare, day 21 after the treatment
Procedure, shortened: as §4

Indian millet [5] = experiment: as above; set-up: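 index 0 to 10 in 10% steps of herbicidal effect with 10 meaning complete death and 0 below 10%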; details: 1000 g effective component per hectare, day 21 after the treatment
Procedure, shortened: as §4

Echinochloa crus-galli [6] = experiment: Herbicidal activity by field foliage treatment (Test example 3); set-up: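 index 0 to 10 in 10% steps of herbicidal effect with 10 meaning complete death and 0 below 10%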; details: 1000 g effective component per hectare, day 14 after the treatment
Procedure, shortened: as §3

Row | SMILES | herbicidal effect index, Setaria viridis (foxtail) | Herbicidal effects index number, Monochoria vaginalis (Monochoria vaginalis) | herbicidal effect index, S. juncoides Rocxb. (Scirpus juncoides Rocxb.) | Herbicidal effects index number, Echinochloa oryzicola (Echinochloa oryzicola) | herbicidal effect index, Amaranthus retroflexus (A. retroflexus [1]) | herbicidal effect index, Abutilon theophrasti (Indian millet [2]) | herbicidal effect index, Setaria viridis (Setaria viridis) | herbicidal effect index, Echinochloa crus-galli (Echinochloa crus-galli [3]) | herbicidal effect index, Amaranthus retroflexus (A. retroflexus [4]) | herbicidal effect index, Abutilon theophrasti (Indian millet [5]) | herbicidal effect index, Echinochloa crus-galli (Echinochloa crus-galli [6])
1 | Cc1ccc(Cl)c(-n2c(=O)c(C(=O)C3=C(O)CCCC3=O)nn(C)c2=O)c1 [I-129] | 10 | 10 | 10 | 10 | 10 | 9 | 9 | 9 | 10 | 10 | 10
2 | Cn1nc(C(=O)C2=C(O)CCCC2=O)c(=O)n(-c2cc(Cl)cc(Cl)c2)c1=O [I-82] | 9 | 10 | 10 | 8 | 10 | 10 | 10 | 9 | 10 | 9 | 10
3 | Cn1nc(C(=O)C2=C(O)CCCC2=O)c(=O)n(-c2ccc(Cl)c(Cl)c2)c1=O [I-81] | 7 | 10 | 10 | 10 | 10 | 10 | 10 | 9 | 10 | 10 | 10
4 | Cc1c(Cl)cccc1-n1c(=O)c(C(=O)C2=C(O)CCCC2=O)nn(C)c1=O [I-136] | 8 | 10 | 10 | 9 | 10 | 9 | 9 | – | 9 | 9 | 9
5 | Cc1ccc(-n2c(=O)c(C(=O)C3=C(O)CCCC3=O)nn(C)c2=O)cc1C [I-87] | 6 | 10 | 10 | 9 | 10 | 9 | – | 9 | 9 | 9 | 9
6 | Cc1cncc(-n2c(=O)c(C(=O)C3=C(O)CCCC3=O)nn(C)c2=O)c1 [I-278] | 9 | 9 | 10 | 8 | 10 | 9 | 10 | 9 | 10 | – | 10
7 | Cn1nc(C(=O)C2=C(O)CCCC2=O)c(=O)n(C2CCCCC2)c1=O [I-19] | 8 | 10 | 10 | 10 | 10 | 10 | 10 | 8 | 8 | – | 10
8 | COc1cc(-n2c(=O)c(C(=O)C3=C(O)CCCC3=O)nn(C)c2=O)ccc1Cl [I-131] | 7 | 10 | 10 | 9 | 10 | 10 | – | 9 | 10 | 9 | 10
9 | COc1cc(-n2c(=O)c(C(=O)C3=C(O)CCCC3=O)nn(C)c2=O)ccc1C [I-155] | 7 | 10 | 10 | 10 | 10 | 10 | 7 | – | 10 | 10 | 9
10 | CC(C)n1nc(C(=O)C2=C(O)CCCC2=O)c(=O)n(-c2ccccc2)c1=O [I-260] | 5 | 10 | 10 | 10 | 10 | 10 | – | 10 | 10 | 10 | 8
11 | Cc1ccc(-n2c(=O)c(C(=O)C3=C(O)C(C)(C)C(=O)C(C)(C)C3=O)nn(C)c2=O)c(C)c1 [VI-65] | 7 | 10 | 10 | 10 | 10 | 10 | 7 | – | 10 | 10 | 9
12 | COc1c(Cl)cc(-n2c(=O)c(C(=O)C3=C(O)CCCC3=O)nn(C)c2=O)cc1Cl [I-299] | 10 | 10 | 10 | 10 | 10 | 9 | – | 9 | 10 | 10 | 8
13 | COc1cc(-n2c(=O)c(C(=O)C3=C(O)CCCC3=O)nn(C)c2=O)ccc1F [I-111] | 7 | 10 | 10 | 10 | 10 | 10 | – | 9 | 10 | 9 | 10
14 | Cn1nc(C(=O)C2=C(O)CCCC2=O)c(=O)n(-c2ccc(Cl)nc2)c1=O [I-280] | 8 | 10 | 10 | 10 | 10 | 9 | – | 9 | 10 | 9 | 9
15 | Cn1nc(C(=O)C2=C(O)CCCC2=O)c(=O)n(CC(=O)OC(C)(C)C)c1=O [I-294] | 7 | 9 | 9 | 9 | 8 | 7 | – | 9 | 10 | 9 | 9

Source: US8969554B2, “6-acyl-1,2,4-triazine-3,5-dione derivative and herbicides” (Kumiai Chemical Industry Co., Ltd., priority 2010, dated 2015)
